Test results reported in paper PMC12038163 (Research, 2025).

Assay: in vivo
Conditions: male, Sprague-Dawley, rat, ip, 10 mg/kg

Cc1cccc(-c2ccc(-c3cc4cnc(NC5CC5)nc4n(CCCCCC(=O)NO)c3=O)c(Cl)c2)n1 [ZMF-25]
AUC(0-inf): 9100 ng·h/mL
AUC(0-t): 9070 ng·h/mL
CL/F: 30 mL/min/kg
Cmax: 5110 ng/mL
half-life: 1.4 ± 0.3 h
